In patent US12428406B2 (PMV Pharmaceuticals, Inc., priority 2019, dated 2025):

Molecular target: T1, p53 Y220C (Homo sapiens, UniProt P04637, Y220C)
T1 construct: The recombinant protein was a truncation mutant containing only amino acids 94-312 of p53; made in house; host or cells: E. coli
Experiment: In vitro DNA binding activity assay (HTRF / TR-FRET): stabilization of p53 Y220C and increase of its DNA binding activity
Format: biochemical
Conditions: recombinant His-tagged p53 Y220C DNA binding domain (aa 94-312), biotin-labeled consensus DNA, incubated at 27° C. or 29° C. for 60 min
Method in brief: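 Compound effect on DNA binding of recombinant His-p53 Y220C (E. coli) to biotin-labeled consensus DNA, expressed as SC150, the concentration giving 50% increase versus untreated. Serial 3-fold DMSO dilutions of 4.5 mM stocks; room-temperature steps of 15 then 20 min.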

T1 sequence (P04637 94-312, change not shown): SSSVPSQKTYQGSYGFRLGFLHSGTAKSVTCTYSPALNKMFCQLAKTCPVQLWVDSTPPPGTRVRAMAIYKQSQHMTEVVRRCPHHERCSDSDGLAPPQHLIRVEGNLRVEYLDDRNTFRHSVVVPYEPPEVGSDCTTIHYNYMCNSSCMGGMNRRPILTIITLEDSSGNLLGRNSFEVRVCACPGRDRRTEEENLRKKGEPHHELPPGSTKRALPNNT

Row | SC150 (concentration of the compound required to increase the DNA binding activity by 50%) | SMILES
1 | + (+ = 0 μM ≤ SC150 < 0.05 μM) | COc1cc(S(C)(=O)=O)c(F)cc1NCC#Cc1cc2c(NC3CCN(C)CC3)cccc2n1CC(F)(F)F [Compound 522A, 2-{3-[(5-fluoro-4-methanesulfonyl-2-methoxyphenyl)amino]prop-1-yn-1-yl}-N-(1-methylpiperidin-4-yl)-1-(2,2,2-trifluoroethyl)-1H-indol-4-amine]
2 | + (+ = 0 μM ≤ SC150 < 0.05 μM) | COCCN(C)[C@H]1CC[C@H](Nc2cccc3c2cc(C#CCNc2ccc(S(N)(=O)=O)cc2OCC#N)n3CC(F)(F)F)CC1 [Compound 164A, 3-(cyanomethoxy)-4-{[3-(4-{[(1R,4R)-4-[(2-methoxyethyl) (methyl)amino]cyclo-hexyl]amino}-1-(2,2,2-trifluoroethyl)-1H-indol-2-yl)prop-2-yn-1-yl]amino}benzene-1-sulfonamide]
3 | + (+ = 0 μM ≤ SC150 < 0.05 μM) | COc1cc(S(=O)(=O)Nc2ccon2)ccc1NCC#Cc1cc2c(NC3CCS(=O)(=O)CC3)cccc2n1CC(F)(F)F [Compound 1039A, 4-[(3-{4-[(1,1-dioxo-1λ^6-thian-4-yl)amino]-1-(2,2,2-trifluoroethyl)-1H-indol-2-yl}prop-2-yn-1-yl)amino]-3-methoxy-N-(1,2-oxazol-3-yl)benzene-1-sulfonamide]
4 | + (+ = 0 μM ≤ SC150 < 0.05 μM) | CCC(=O)OCC(CN1CCC(Nc2cccc3c2cc(C#CCNc2ccc(S(C)(=O)=O)cc2OC)n3CC(F)(F)F)CC1)OC(=O)CC (stereo not shown) [Compound 586A, 1-{4-[(2-{3-[(4-methanesulfonyl-2-methoxyphenyl)amino]prop-1-yn-1-yl}-1-(2,2,2-trifluoroethyl)-1H-indol-4-yl)amino]piperidin-1-yl}-3-(propanoyloxy)propan-2-yl propanoate]
5 | + (+ = 0 μM ≤ SC150 < 0.05 μM) | COc1cc(S(=O)(=O)N2CCOCC2)ccc1NCC#Cc1cc2c(N[C@H]3CC[C@@H](N(C)C)CC3)cccc2n1CC(F)(F)F [Compound 68A, (1S,4S)-N4-[2-(3-{[2-methoxy-4-(morpholine-4-sulfonyl)phenyl]amino}prop-1-yn-1-yl)-1-(2,2,2-trifluoro-ethyl)-1H-indol-4-yl]-N^1,N^1-dimethyl-cyclohexane-1,4-diamine]
6 | + (+ = 0 μM ≤ SC150 < 0.05 μM) | COc1cc(C(N)=O)ccc1NCC#Cc1cc2c(N[C@H]3CC[C@H](N4CC5(CCCOC5)C4)CC3)cccc2n1CC(F)(F)F [Compound 333A, 3-methoxy-4-{[3-(4-{[(1R,4R)-4-{6-oxa-2-azaspiro[3.5]nonan-2-yl}cyclohexyl]amino}-1-(2,2,2-trifluoroethyl)-1H-indol-2-yl)prop-2-yn-1-yl]amino}benzamide]
7 | + (+ = 0 μM ≤ SC150 < 0.05 μM) | CN(C)[C@H]1CC[C@H](Nc2cccc3c2cc(C#CCNc2ccc(S(C)(=O)=O)cc2OCC#N)n3CC(F)(F)F)CC1 [Compound 81A, 2-(5-methanesulfonyl-2-{[3-(4-{[(1R,4R)-4-(dimethylamino)cyclohexyl]amino}-1-(2,2,2-trifluoro-ethyl)-1H-indol-2-yl)prop-2-yn-1-yl]amino}phenoxy)acetonitrile]
8 | + (+ = 0 μM ≤ SC150 < 0.05 μM) | CCC(=O)N(C)S(=O)(=O)c1ccc(NCC#Cc2cc3c(NC4CCN(CC(O)COC)CC4)cccc3n2CC(F)(F)F)c(OC)c1 (stereo not shown) [Compound 624A, N-(4-{[3-(4-{[1-(2-hydroxy-3-methoxypropyl)piperidin-4-yl]amino}-1-(2,2,2-trifluoroethyl)-1H-indol-2-yl)prop-2-yn-1-yl]amino}-3-methoxybenzenesulfonyl)-N-methylpropanamide]
9 | + (+ = 0 μM ≤ SC150 < 0.05 μM) | CS(=O)(=O)c1ccc(NCC#Cc2cc3c(N[C@H]4CC[C@@H](N5CCOCC5)CC4)cccc3n2CC(F)(F)F)c(OCC#N)c1 [Compound 186A, 2-(5-methanesulfonyl-2-{[3-(4-{[(1S,4S)-4-(morpholin-4-yl)cyclohexyl]amino}-1-(2,2,2-trifluoroethyl)-1H-indol-2-yl)prop-2-yn-1-yl]amino}phenoxy)acetonitrile]
10 | + (+ = 0 μM ≤ SC150 < 0.05 μM) | CNC(=O)c1ccc(NCC#Cc2cc3c(NC4CCN(CC(O)COC)CC4)cccc3n2CC(F)(F)F)c(OCF)c1 (stereo not shown) [Compound 663A, 3-(fluoromethoxy)-4-{[3-(4-{[1-(2-hydroxy-3-methoxypropyl)piperidin-4-yl]amino}-1-(2,2,2-trifluoroethyl)-1H-indol-2-yl)prop-2-yn-1-yl]amino}-N-methylbenzamide]
11 | + (+ = 0 μM ≤ SC150 < 0.05 μM) | COc1cc(C(=O)O)ccc1NCC#Cc1cc2c(N[C@H]3CCN(C)C[C@H]3F)cccc2n1CC(F)(F)F (racemic) [Compound 779A, rac-4-{[3-(4-{[(3R,4S)-3-fluoro-1-methylpiperidin-4-yl]amino}-1-(2,2,2-trifluoroethyl)-1H-indol-2-yl)prop-2-yn-1-yl]amino}-3-methoxybenzoic acid]
12 | + (+ = 0 μM ≤ SC150 < 0.05 μM) | COc1cc(S(C)(=O)=O)ccc1NCC#Cc1cc2c(NC3CCN(C(=O)C(C)C)CC3)cccc2n1CC(F)(F)F [Compound 752A]
13 | + (+ = 0 μM ≤ SC150 < 0.05 μM) | CNC(=O)c1ccc(NCC#Cc2cc3c(NC4CCC(N5CC6(COC6)C5)CC4)cccc3n2CC(F)(F)F)c(OCF)c1 [Compound 253A, 3-(fluoromethoxy)-N-methyl-4-{[3-(4-{[(1R,4R)-4-{2-oxa-6-azaspiro[3.3]heptan-6-yl}cyclohexyl]amino}-1-(2,2,2-trifluoroethyl)-1H-indol-2-yl)prop-2-yn-1-yl]amino} benzamide]
14 | + (+ = 0 μM ≤ SC150 < 0.05 μM) | CNC(=O)c1ccc(NCC#Cc2cc3c(N[C@H]4CC[C@H](C#N)CC4)cccc3n2CC(F)(F)F)c(OC)c1 [Compound 34A, 3-methoxy-N-methyl-4-{[3-(4-{[(1R,4R)-4-cyanocyclohexyl]amino}-1-(2,2,2-trifluoroethyl)-1H-indol-2-yl)prop-2-yn-1-yl]amino}benzamide]
15 | + (+ = 0 μM ≤ SC150 < 0.05 μM) | COCC(O)CN1CCC(Nc2cccc3c2cc(C#CCNc2ccc(S(C)(=O)=O)cc2OC(F)(F)F)n3CC(F)(F)F)CC1 (stereo not shown) [Compound 710A, 1-(4-{[2-(3-{[4-methanesulfonyl-2-(trifluoromethoxy)phenyl]amino}prop-1-yn-1-yl)-1-(2,2,2-trifluoroethyl)-1H-indol-4-yl]amino}piperidin-1-yl)-3-methoxypropan-2-ol]
16 | + (+ = 0 μM ≤ SC150 < 0.05 μM) | CCC(=O)N1CCC(Nc2cccc3c2cc(C#CCNc2ccc(S(N)(=O)=O)cc2OC)n3CC(F)(F)F)CC1 [Compound 757A]
17 | + (+ = 0 μM ≤ SC150 < 0.05 μM) | COc1cc(C(=O)NC(C)COC(=O)C(C)C)ccc1NCC#Cc1cc2c(N[C@@H]3CCN(C)C[C@@H]3F)cccc2n1CC(F)(F)F (stereo partly drawn) [Compound 972A, 2-[(4-{[3-(4-{[(3S,4R)-3-fluoro-1-methylpiperidin-4-yl]amino}-1-(2,2,2-trifluoroethyl)-1H-indol-2-yl)prop-2-yn-1-yl]amino}-3-methoxyphenyl)formamido]propyl 2-methylpropanoate]
18 | + (+ = 0 μM ≤ SC150 < 0.05 μM) | CCNC(=O)c1ccc(NCC#Cc2cc3c(N[C@@H]4CCNC[C@@H]4F)cccc3n2CC(F)(F)F)c(OC)c1 [Compound 1062A, N-ethyl-4-{[3-(4-{[(3S,4R)-3-fluoropiperidin-4-yl]amino}-1-(2,2,2-trifluoroethyl)-1H-indol-2-yl)prop-2-yn-1-yl]amino}-3-methoxybenzamide]
19 | + (+ = 0 μM ≤ SC150 < 0.05 μM) | CNC(=O)c1ccc(NCC#Cc2cc3c(N[C@H]4CC[C@@H](N5CC6(COC6)C5)CC4)cccc3n2CC(F)(F)F)c(OCCOC)c1 [Compound 237A, 3-(2-methoxyethoxy)-N-methyl-4-{[3-(4-{[(1S,4S)-4-{2-oxa-6-azaspiro[3.3]heptan-6-yl}cyclohexyl]amino}-1-(2,2,2-trifluoroethyl)-1H-indol-2-yl)prop-2-yn-1-yl]amino} benzamide]
20 | + (+ = 0 μM ≤ SC150 < 0.05 μM) | COc1cc(C(=O)O)ccc1NCC#Cc1cc2c(N[C@H]3CCN(CCO)C[C@H]3F)cccc2n1CC(F)(F)F [Compound 912A, 4-{[3-(4-{[(3R,4S)-3-fluoro-1-(2-hydroxyethyl)piperidin-4-yl]amino}-1-(2,2,2-trifluoroethyl)-1H-indol-2-yl)prop-2-yn-1-yl]amino}-3-methoxybenzoic acid]
21 | + (+ = 0 μM ≤ SC150 < 0.05 μM) | CCC(=O)Oc1cc(S(C)(=O)=O)ccc1NCC#Cc1cc2c(NC3CCOCC3)cccc2n1CC(F)(F)F [Compound 1014A, 5-methanesulfonyl-2-[(3-{4-[(oxan-4-yl)amino]-1-(2,2,2-trifluoroethyl)-1H-indol-2-yl}prop-2-yn-1-yl)amino]phenyl propanoate]
22 | + (+ = 0 μM ≤ SC150 < 0.05 μM) | COc1cc(S(=O)(=O)N(CCO)CCO)ccc1NCC#Cc1cc2c(N[C@H]3CC[C@H](N(C)C)CC3)cccc2n1CC(F)(F)F [Compound 70A, N,N-bis(2-hydroxyethyl)-3-methoxy-4-{[3-(4-{[(1R,4R)-4-(dimethyl-amino)cyclohexyl]amino}-1-(2,2,2-trifluoroethyl)-1H-indol-2-yl)prop-2-yn-1-yl]amino}benzene-1-sulfonamide]
